Data: ChEMBL document CHEMBL1125637, “Benzocycloalkyl amines as novel C-termini for HIV protease inhibitors” (J Med Chem, 1991)

Molecular target: Human immunodeficiency virus type 1 protease (Human immunodeficiency virus 1, UniProt Q72874)
Assay: Inhibition of HIV protease
Format: functional

Row | Compound | IC50 [µM]
1 | CC(C)(C)OC(=O)N[C@@H](Cc1ccccc1)[C@@H](O)C[C@@H](Cc1ccccc1)C(=O)NC1c2ccccc2C[C@H]1C(N)=O (some centres not stated) | 0.0018
2 | CC(C)(C)OC(=O)N[C@@H](Cc1ccccc1)[C@@H](O)C[C@@H](Cc1ccccc1)C(=O)N[C@H]1CCc2ccccc21 | 0.021
3 | CC(C)(C)OC(=O)N[C@@H](Cc1ccccc1)[C@@H](O)C[C@@H](Cc1ccccc1)C(=O)NC1CCCc2ccccc21 (some centres not stated) | 0.016
4 | CC(C)(C)OC(=O)N[C@@H](Cc1ccccc1)[C@@H](O)C[C@@H](Cc1ccccc1)C(=O)NC1c2ccccc2[C@@H](N)[C@H]1O (some centres not stated) | 0.0019
5 | CC(C)(C)OC(=O)N[C@@H](Cc1ccccc1)[C@@H](O)C[C@@H](Cc1ccccc1)C(=O)NC1Cc2ccccc21 (some centres not stated) | 0.022
6 | CC(C)(C)OC(=O)N[C@@H](Cc1ccccc1)[C@@H](O)C[C@@H](Cc1ccccc1)C(=O)N[C@H]1c2ccccc2C[C@H]1O | 0.0003
7 | CC(C)(C)OC(=O)N[C@@H](Cc1ccccc1)[C@@H](O)C[C@@H](Cc1ccccc1)C(=O)N[C@@H]1CCc2ccccc21 | 0.019
8 | CC(C)(C)OC(=O)N[C@@H](Cc1ccccc1)[C@@H](O)C[C@@H](Cc1ccccc1)C(=O)N[C@H]1c2ccccc2[C@@H](O)[C@H]1O | 0.0001
9 | CC(C)(C)OC(=O)N[C@@H](Cc1ccccc1)[C@@H](O)C[C@@H](Cc1ccccc1)C(=O)NCCc1ccccc1 | 2.8
10 | CC(C)(C)OC(=O)N[C@@H](Cc1ccccc1)[C@@H](O)C[C@@H](Cc1ccccc1)C(=O)NC1Cc2ccccc2C1 | 0.13
11 | CC(C)(C)OC(=O)N[C@@H](Cc1ccccc1)[C@@H](O)C[C@@H](Cc1ccccc1)C(=O)N[C@H]1c2ccccc2C[C@@H]1O (stereo in doubt; 8) | 0.259
12 | CC(C)(C)OC(=O)N[C@@H](Cc1ccccc1)[C@@H](O)C[C@@H](Cc1ccccc1)C(=O)N[C@H]1c2ccccc2C[C@@H]1O (stereo in doubt; 10) | 0.229
